≈ marks a conversion by molar mass, not a printed value. Where two headings read alike, the source gives them in different places.
How the values were obtained:
[1] = system: Staphylococcus aureus ATCC 29213; assay: MIC by broth microdilution (CLSI); type: cell-based; settings: read-out: MIC
Source text: (§1) Several well characterized for their antibiotic-susceptibility phenotype Staphylococcus aureus isolates were used for the determination of the in vitro antibacterial activity of the studied compounds. In particular, S. aureus ATCC 29213 reference standard strain and S. aureus M923 (collection strain) were used as MSSA strains. Among MRSA, S. aureus MU50 (ATCC 700699) reference standard strain and two collection strains (433 and F511) were used for susceptibility assays.
(§2) The in vitro antibacterial activity of the new agents was studied by determining their minimum inhibitory concentrations (MICs) by means of the broth microdilution method according to the Clinical and Laboratory Standards Institute (CLSI) guidelines.[16] Briefly, serial 2-fold dilutions of each compound were made using the Cation adjusted Mueller-Hinton broth (CAMHB) in microtitre plates with 96 wells. Dimethyl sulfoxide (DMSO) was used as solvent for all the synthesized compounds. An equal volume of the bacterial inoculum (1×10^6 CFU/mL) was added to each well on the microtitre plate containing 0.05 mL of the serial antibiotic dilutions. The microtitre plate was then incubated at 37° C. for 18-24 h after which each well was analysed for the presence of bacterial growth. The MIC was defined as the lowest concentration of antimicrobial agent able to cause inhibition of bacterial growth as shown by the lack of turbidity of the culture medium. […] Final DMSO concentrations were also taken into account in all the biological assays.
(§3) The antimicrobial activities, summarized in Table 2, were determined by the “gold standard” method of broth microdilution, as recommended by the Clinical Laboratory Standards Institute (CLSI) (See the Experimental Section). […] In detail, the bacterial strains were tested: Staphylococcus aureus ATCC 29213, a clinical strain of methicillin-susceptible S. aureus (M923), S. aureus MU50 (methicillin-resistant—MRSA), and two methicillin-resistant clinical strains, 433 and F511.
(§4) The antimicrobial activities, summarized in Table 3, were determined by the “gold standard” method of broth microdilution, as recommended by the Clinical Laboratory Standards Institute (CLSI) (See the Experimental Section). The minimum inhibitory concentration (MIC) values were expressed in μg/mL. […] In detail, the tested bacterial strains were: Staphylococcus aureus ATCC 29213, a clinical strain of methicillin-susceptible S. aureus (M923), S. aureus MU50 (methicillin-resistant—MRSA) strain, and two methicillin-resistant clinical strains, 433 and F511.

[2] = system: PK15 (porcine kidney epithelial) cells; assay: Cell viability, MTT assay; type: cell-based; settings: 5-400 μg/mL, FIG. 2
Protocol: (§5) [17-19] HepG2 and HaCat cells were grown in Dulbecco's modified eagles medium (DMEM) whereas PK15 in DMEM/M199 (1:1). All media were supplemented with 10% heat inactivated foetal bovine serum (FBS), 2 mM L-glutamine, 100 units/mL penicillin and 100 μg/mL streptomycin. Cells were maintained at 37° C. in a 5% CO2 atmosphere. All reagents for cell culture were from Euroclone (Pero, Italy).
(§6) Cell viability was measured by the MTT assay.[20] Briefly, MTT [3-(4,5-Dimethylthiazol-2-yl)-2,5-diphenyltetrazolium bromide] stock solution (5 mg/mL) was added to each well to a final concentration of 1.2 mM, and cells were incubated for 1 hour and 30 minutes at 37° C. After removing MTT solution, the reaction was stopped by adding 90% ethanol. Resuspended cells were centrifuged 10 min at 800×g. The absorbance was measured with the multilabel Victor^3 spectrophotometer (Perkin Elmer, Turku, Finland) at wavelength of 570 nm. Data are means±S.E. of 3 separate experiments performed in triplicate.
(§7) Statistical significance was obtained with Student'st test in comparison with controls *=P≤0.05, **=P≤0.001. Data are means±S.E. of 3 separate experiments performed in triplicate.
(§8) Another control was DMSO used as solvent.

[3] = system: HaCaT (human keratinocytes) cells; assay: Cell viability, MTT assay; type: cell-based; settings: P<0.01, FIG. 3
Protocol: as §5, §6, §7, §8

[4] = system: HepG2 (human hepatocellular carcinoma) cells; assay: Cell viability, MTT assay; type: cell-based; settings: FIG. 4
Protocol: as §5, §6, §7, §8

[5] = system: MRSA clinical strain F511; assay: MIC by broth microdilution (CLSI); type: cell-based, Staphylococcus aureus; settings: Staphylococcus aureus
Source text: as §1, §2, §3, §4

[6] = system: methicillin-susceptible S. aureus (M923); assay: MIC by broth microdilution (CLSI); type: cell-based, Staphylococcus aureus; settings: Staphylococcus aureus, MSSA M923, read-out: MIC
Source text: as §1, §2, §3, §4

[7] = system: MRSA clinical strain 433; assay: MIC by broth microdilution (CLSI); type: cell-based, Staphylococcus aureus; settings: Staphylococcus aureus, MRSA 433, read-out: MIC
Source text: as §1, §2, §3, §4

[8] = system: S. aureus MU50 (ATCC 700699), methicillin-resistant (MRSA); assay: MIC by broth microdilution (CLSI); type: cell-based, Staphylococcus aureus; settings: Staphylococcus aureus
Source text: as §1, §2, §3, §4

[9] = system: 12 MRSE all LZD sensitive; assay: MIC on strain panel (Table 4); type: cell-based, Staphylococcus epidermidis; settings: Staphylococcus epidermidis
Source text: as §2

[10] = system: 6 ATCC (4MSSA, 2 MRSA)plus45 MRSA all LZD sensitive; assay: MIC on strain panel (Table 4); type: cell-based, Staphylococcus aureus; settings: 6 ATCC plus 45 MRSA
Source text: as §2

[11] = system: 11 Linezolid-resistant CoNS; assay: MIC summary on strain panel (Table 5); type: cell-based, Staphylococcus epidermidis, Staphylococcus hominis; settings: 11 Linezolid-resistant CoNS
Source text: as §2

[12] = system: 45 Linezolid-susceptible MRSA; assay: MIC summary on strain panel (Table 5); type: cell-based, Staphylococcus aureus
Source text: In particular, eleven linezolid-resistant coagulase-negative staphylococci (CoNS) (ten S. epidermidis and one S. hominis) were investigated. The eleven linezolid-resistant strains were isolated in several hospital settings between 2010 and 2011 from positive blood cultures. For the […], recently isolated from patients with cystic fibrosis, showing different profiles of multi-resistance to different classes of antimicrobials, was used (Table 4 and 5).
as §2

[13] = system: Linezolid-resistant S. epidermidis Strains 1-10; assay: MIC by broth microdilution (Table 5); type: cell-based, Staphylococcus epidermidis
Source text: as §2

[14] = system: Linezolid-resistant S. hominis Strain 11; assay: MIC by broth microdilution (Table 5); type: cell-based, Staphylococcus hominis; settings: S. hominis Strain 11, linezolid-resistant
Source text: as §2

[15] = system: ATCC E. faecalis 29212; assay: MIC by broth microdilution (Table 5); type: cell-based, Enterococcus faecalis
Protocol: Dimethyl sulfoxide (DMSO) was used as solvent for all the synthesized compounds. An equal volume of the bacterial inoculum (1×10^6 CFU/mL) was added to each well on the microtitre plate containing 0.05 mL of the serial antibiotic dilutions. The microtitre plate was then incubated at 37° C. for 18-24 h after which each well was analysed for the presence of bacterial growth. The MIC was defined as the lowest concentration of antimicrobial agent able to cause inhibition of bacterial growth as shown by the lack of turbidity of the culture medium. […] Final DMSO concentrations were also taken into account in all the biological assays.

[16] = racemic mixture, Table 2, read-out: MIC
[17] = racemic form, Table 3, read-out: MIC

CC(=S)NCC1CN(c2ccc(-c3nc(C)no3)c(F)c2)C(=O)O1 (racemic) [Compound A4b, 3-(3′-fluoro-4′-(3″-methyl-1,2,4-oxadiazol-5-yl)-phenyl)-5-(N-thioacetylaminomethyl)-oxazolidin-2-one]
MIC ([1]; Staphylococcus aureus, ATCC29213, ATCC 29213, racemic mixture, Table 2): 1.6 µg/mL (≈ 4.57 µM)
reduction of viability [2]: less than 10%
concentration reaching statistically significant mortality compared to linezolid [3]: 400 µg/mL
concentration from which a reduction in viability was shown [4]: ≥ 50 µg/mL
MIC [5, 16]: 1.6 µg/mL (≈ 4.57 µM)
MIC ([6]; racemic mixture, Table 2): 1.6 µg/mL (≈ 4.57 µM)
MIC ([7]; racemic mixture, Table 2): 0.8 µg/mL (≈ 2.28 µM)
MIC [8, 16]: ≤ 0.4 µg/mL

CNC(=S)NCC1CN(c2ccc(-c3nc(C)no3)c(F)c2)C(=O)O1 (racemic) [Compound B4b, 1-((3-(3-fluoro-4-(3-methyl-1,2,4-oxadiazol-5-yl)phenyl)-oxazolidin-2-one-5-yl)methyl)-3-methylthiourea]
MIC50 ([9]; read-out: MIC50): 64 µg/mL (≈ 175 µM)
MIC90 ([9]; read-out: MIC90): 128 µg/mL (≈ 350 µM)
MIC-range ([10]; tested range ≤0.06 - >128): 0.5 to 16 µg/mL
MIC50 ([10]; Staphylococcus aureus, read-out: MIC50): 4 µg/mL
MIC90 ([10]; Staphylococcus aureus, read-out: MIC90): 16 µg/mL
MIC ([1]; Staphylococcus aureus, ATCC29213, ATCC 29213, racemic form, Table 3): 6.25 µg/mL (≈ 17.1 µM)
melting point: 170.7 to 172.4 °C
MIC [5, 17]: 6.25 µg/mL (≈ 17.1 µM)
MIC ([6]; racemic form, Table 3): 6.25 µg/mL (≈ 17.1 µM)
MIC ([7]; racemic form, Table 3): 3.12 µg/mL (≈ 8.55 µM)
MIC [8, 17]: 1.6 µg/mL (≈ 4.38 µM)

CC(=S)NC[C@@H]1CN(c2ccc(-c3nc(C)no3)cc2)C(=O)O1 [Compound A4aR]
MIC50 [11]: > 128 µg/mL
MIC90 [11]: > 128 µg/mL
MIC-range [11]: > 128 µg/mL
MIC ([1]; ATCC S. aureus 29213, resolved enantiomers, Table 5): 128 µg/mL (≈ 385 µM)
MIC50 [12]: > 128 µg/mL
MIC ([13]; S. epidermidis Strain 1, linezolid-resistant): > 128 µg/mL
MIC ([13]; S. epidermidis Strain 2, linezolid-resistant): > 128 µg/mL
MIC ([13]; S. epidermidis Strain 3, linezolid-resistant): > 128 µg/mL
MIC ([13]; S. epidermidis Strain 4, linezolid-resistant): > 128 µg/mL
MIC ([13]; S. epidermidis Strain 5, linezolid-resistant): > 128 µg/mL
MIC ([13]; S. epidermidis Strain 6, linezolid-resistant): > 128 µg/mL
MIC ([13]; S. epidermidis Strain 7, linezolid-resistant): > 128 µg/mL
MIC ([13]; S. epidermidis Strain 8, linezolid-resistant): > 128 µg/mL
MIC ([13]; S. epidermidis Strain 9, linezolid-resistant): > 128 µg/mL
MIC ([13]; S. epidermidis Strain 10, linezolid-resistant): > 128 µg/mL
MIC [14]: > 128 µg/mL
MIC [15]: > 128 µg/mL
